Test results taken from US6077509A, “Peptide fragments of myelin basic protein” (Autoimmune, Inc., priority 1995, dated 2000).

Experiments:
[1] = tested on: actively induced EAE; test: Actively induced EAE (MBP/CFA immunization), clinical score; format: in vivo, Lewis rats; conditions: for suppression of EAE via IV tolerization: intravenously prior to immunization for actively induced disease (FIG. 7)
[2] = tested on: short term T-cell lines from peripheral blood mononuclear cells; test: Proliferation assay of short term T-cell lines for reactivity to MBP, PLP and overlapping MBP peptides; format: cell-based, human; conditions: for mean frequency of T-cell lines selectively reactive to the peptide, MS vs controls (FIG. 1): MS patients compared with combined controls
Procedure: A rapid T-cell cloning technique was used to examine whether there were immunodominant epitopes on human MBP reactive with Class II MHC phenotypes and the frequency of such reactivity. A total of 15,824 short term T-cell lines were generated from 51 human subjects by culturing peripheral blood mononuclear cells ([…]) with purified MBP (100 μg) followed 3 days later, and then every 3-4 days, by the addition of interleukin-2 (IL-2; from ABI, Columbia, Md.) and 2 units recombinant interleukin-4 (IL-4; Genzyme, Boston, Mass.). On Day 13 of culture, an aliquot from each line was tested for reactivity to MBP using the following proliferation assay: T-cell clones (1×10^5 cells/well) were plated in triplicate and cocultured with appropriate stimuli (i.e. 100 μg whole MBP or 5% IL-2) for 72 hours at 37° C., 90% humidity, 5% CO2, in 96 well flat bottomed microtiter plates (Costar). The cells were pulsed with 2 μCi [^3 H]TdR (2 Ci/mmole, New England Nuclear, Boston, Mass.) for the last 18 hours of culture. APCs were prepared by pulsing human Epstein-Barrvirus transformed human B-cells (the virus being commercially available from ATCC) or L-cells which are mouse cells transfected with human DR2 (L-cells are commercially available from ATCC under accession No. ATCC-CCL1 and can be transfected according to the method of Wilkinson, D. et al, J. Exp. Med., 1988, 167:1442-1458 using-DNA encoding DR2 as per Wu, S. et al J. Immunol., 1987, 138:2953). B-cells or L-cells were used at 1×10^6 cells/well in complete media either in the presence or absence of 40 pM MBP or phospholipid protein (PLP) for 2 hours at 37° C., washing twice with 4° C. […]
Subjects with other central nervous system diseases had the following diagnoses: 1-3 weeks after either cerebrovascular accident (n=4), brain trauma with CNS hemorrhage (n=4), or metastatic brain tumor (n=2). […] In addition, the frequency of MBP and PLP-reactive lines was calculated separately for each subject by dividing the number of MBP-reactive lines by the total number of lines generated and the mean values +/- SEM are given. […]

Molecule | suppression of EAE via IV tolerization [1] | mean frequency of T-cell lines selectively reactive to the peptide, MS vs controls (FIG. 1) [2] | further results
131-150: Control guinea pig MBP peptide 131-150 (DYKSKGFKGAHDAQGTLSKI; UniProt P25188 131-150, looked up, fragment) | did not suppress | – | suppression of EAE via oral tolerization ([1]; orally prior to immunization for actively induced disease (FIG. 7)): did not suppress
FKGVDAQGTLSKIFKLGGRD [143-168, human MBP amino acid residues 143-168] | – | both MS and control subjects showed high frequencies | –
HHPARTAHYGSLPQKSEGRT [61-82] | – | Significant but less striking increases in reactivity | –
histone | – | – | mean maximal score ([1]; IV injection before immunization with MBP/CFA, clinical scale 0-5): 3.0±0.3
proteolipid protein (protein, UniProt P60201 2-277, looked up) Myelin proteolipid protein: GLLECCARCLVGAPFASLVATGLCFFGVALFCGCGHEALTGTEKLIETYFSKNYQDYEYLINVIHAFQYVIYGTASFFFLYGALLLAEGFYTTGAVRQIFGDYKTTICGKGLSATVTGGQKGRGSRGQHQAHSLERVCHCLGKWLGHPDKFVGITYALTVVWLLVFACSAVPVYIYFNTWTTCQSIAFPSKTSASIGSLCADARMYGVLPWNAFPGKVCGSNLLSICKTAEFQMTFHLFIAAFVGAAATLVSLLTFMIAATYNFAVLKLMGRGTKF | – | – | MEAN FREQUENCY OF Ag REACTIVE LINES ([2]; other neurological disease (n = 10), mean +/- SEM): 0.90 ± 0.62
myelin basic protein (protein, UniProt P25188 1-167, looked up) Myelin basic protein: ASQKRPSQRHGSKYLATASTMDHARHGFLPRHRDTGILDSIGRFFGSDRAAPKRGSGKDSHHAARTTHYGSLPQKSQRSQDENPVVHFFKNIVTPRTPPPSQGKGRGLSLSRFSWGAEGQKPGFGYGGRADYKSKGFKGAHDAQGTLSKIFKLGGRDSRSGSPMARR | suppression of EAE | – | –
